ChEMBL document CHEMBL2311368 (Bioorg Med Chem Lett, 2013)

Columns and labels:
[1] = molecular target: T1, Mast/stem cell growth factor receptor Kit (Homo sapiens, UniProt P10721); experiment: Inhibition of human c-Kit using poly[Glu:Tyr] (4:1) peptide substrate
[2] = molecular target: T2, Receptor-type tyrosine-protein kinase FLT3 (Homo sapiens, UniProt P36888); experiment: Binding affinity to human FLT3
T2 sequence (P36888 whole entry): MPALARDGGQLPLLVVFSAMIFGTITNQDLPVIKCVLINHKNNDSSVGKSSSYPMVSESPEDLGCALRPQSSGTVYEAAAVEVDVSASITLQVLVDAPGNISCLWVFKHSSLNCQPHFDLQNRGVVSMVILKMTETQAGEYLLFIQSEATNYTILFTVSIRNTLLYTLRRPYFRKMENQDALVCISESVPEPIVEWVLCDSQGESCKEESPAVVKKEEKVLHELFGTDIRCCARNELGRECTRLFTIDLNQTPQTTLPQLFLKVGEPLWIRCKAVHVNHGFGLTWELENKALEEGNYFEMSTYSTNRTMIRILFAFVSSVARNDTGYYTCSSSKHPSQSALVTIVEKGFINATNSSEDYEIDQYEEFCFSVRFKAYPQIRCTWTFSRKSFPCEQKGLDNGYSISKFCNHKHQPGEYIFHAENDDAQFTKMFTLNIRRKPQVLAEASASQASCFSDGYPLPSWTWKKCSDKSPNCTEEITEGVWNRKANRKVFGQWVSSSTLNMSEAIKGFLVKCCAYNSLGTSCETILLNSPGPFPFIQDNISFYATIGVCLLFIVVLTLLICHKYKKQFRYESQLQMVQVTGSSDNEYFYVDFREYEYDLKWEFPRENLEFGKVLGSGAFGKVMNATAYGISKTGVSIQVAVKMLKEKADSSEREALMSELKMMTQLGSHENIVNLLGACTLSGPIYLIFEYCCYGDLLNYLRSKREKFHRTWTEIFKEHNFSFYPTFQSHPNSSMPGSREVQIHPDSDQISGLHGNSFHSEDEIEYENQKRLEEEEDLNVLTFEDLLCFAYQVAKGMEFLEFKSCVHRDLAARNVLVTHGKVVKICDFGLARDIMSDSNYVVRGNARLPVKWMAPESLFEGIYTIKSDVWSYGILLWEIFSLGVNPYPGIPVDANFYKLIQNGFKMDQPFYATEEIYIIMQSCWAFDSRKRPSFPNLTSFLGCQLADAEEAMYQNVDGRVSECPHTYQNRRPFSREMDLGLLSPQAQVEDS

[3] = molecular target: T3, Discoidin domain-containing receptor 2 (Homo sapiens, UniProt Q16832); experiment: Inhibition of human DDR2 using KKSRGDYMTMQIG peptide substrate
T3 sequence (Q16832 whole entry): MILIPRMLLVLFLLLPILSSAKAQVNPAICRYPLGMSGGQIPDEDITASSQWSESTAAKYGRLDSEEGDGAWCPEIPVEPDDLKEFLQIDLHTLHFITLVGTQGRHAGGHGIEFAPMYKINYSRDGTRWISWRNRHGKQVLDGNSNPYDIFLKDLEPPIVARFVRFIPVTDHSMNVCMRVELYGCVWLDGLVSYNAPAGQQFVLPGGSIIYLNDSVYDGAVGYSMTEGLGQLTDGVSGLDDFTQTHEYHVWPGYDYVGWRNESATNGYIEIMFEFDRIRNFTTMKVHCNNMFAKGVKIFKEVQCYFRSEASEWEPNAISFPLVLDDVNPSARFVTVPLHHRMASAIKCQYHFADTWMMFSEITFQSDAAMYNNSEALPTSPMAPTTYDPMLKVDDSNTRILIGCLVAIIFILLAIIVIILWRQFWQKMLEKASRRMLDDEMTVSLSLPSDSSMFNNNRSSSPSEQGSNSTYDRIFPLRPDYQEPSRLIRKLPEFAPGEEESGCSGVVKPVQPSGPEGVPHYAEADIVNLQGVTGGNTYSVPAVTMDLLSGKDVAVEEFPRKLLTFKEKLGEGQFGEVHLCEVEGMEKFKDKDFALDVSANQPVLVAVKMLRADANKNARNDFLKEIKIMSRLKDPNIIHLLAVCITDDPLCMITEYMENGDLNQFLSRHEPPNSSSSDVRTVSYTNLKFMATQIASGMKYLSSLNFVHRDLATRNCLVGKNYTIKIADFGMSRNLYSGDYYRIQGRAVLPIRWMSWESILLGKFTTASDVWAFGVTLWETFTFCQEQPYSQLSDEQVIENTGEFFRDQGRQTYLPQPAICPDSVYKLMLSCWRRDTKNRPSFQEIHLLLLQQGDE

[4] = molecular target: T4, Platelet-derived growth factor receptor beta (Homo sapiens, UniProt P09619); experiment: Inhibition of human PDGFRbeta using poly[Glu:Tyr] (4:1) peptide substrate
[5] = molecular target: T3, Discoidin domain-containing receptor 2
Description: Binding affinity to human DDR2

[6] = molecular target: Tyrosine-protein kinase Lck (Homo sapiens, UniProt P06239); experiment: Inhibition of human LCK using poly[Glu:Tyr] (4:1) peptide substrate
[7] = molecular target: T1, Mast/stem cell growth factor receptor Kit; experiment: Binding affinity to human c-Kit
[8] = molecular target: T2, Receptor-type tyrosine-protein kinase FLT3; experiment: Inhibition of human FLT3 using EAIYAAPFAKKK peptide substrate
[9] = molecular target: Mast/stem cell growth factor receptor Kit (Homo sapiens, UniProt P10721, V654A); experiment: Inhibition of human c-Kit V654A mutant using poly[Glu:Tyr] (4:1) peptide substrate
[10] = molecular target: T4, Platelet-derived growth factor receptor beta; experiment: Binding affinity to human PDGFRbeata
[11] = molecular target: Mast/stem cell growth factor receptor Kit (Homo sapiens, UniProt P10721, T670I); experiment: Inhibition of human c-Kit T670I mutant using poly[Glu:Tyr] (4:1) peptide substrate
Chain of Mast/stem cell growth factor receptor Kit (Homo sapiens, UniProt P10721, T670I) (P10721 26-976 T670I limits assumed): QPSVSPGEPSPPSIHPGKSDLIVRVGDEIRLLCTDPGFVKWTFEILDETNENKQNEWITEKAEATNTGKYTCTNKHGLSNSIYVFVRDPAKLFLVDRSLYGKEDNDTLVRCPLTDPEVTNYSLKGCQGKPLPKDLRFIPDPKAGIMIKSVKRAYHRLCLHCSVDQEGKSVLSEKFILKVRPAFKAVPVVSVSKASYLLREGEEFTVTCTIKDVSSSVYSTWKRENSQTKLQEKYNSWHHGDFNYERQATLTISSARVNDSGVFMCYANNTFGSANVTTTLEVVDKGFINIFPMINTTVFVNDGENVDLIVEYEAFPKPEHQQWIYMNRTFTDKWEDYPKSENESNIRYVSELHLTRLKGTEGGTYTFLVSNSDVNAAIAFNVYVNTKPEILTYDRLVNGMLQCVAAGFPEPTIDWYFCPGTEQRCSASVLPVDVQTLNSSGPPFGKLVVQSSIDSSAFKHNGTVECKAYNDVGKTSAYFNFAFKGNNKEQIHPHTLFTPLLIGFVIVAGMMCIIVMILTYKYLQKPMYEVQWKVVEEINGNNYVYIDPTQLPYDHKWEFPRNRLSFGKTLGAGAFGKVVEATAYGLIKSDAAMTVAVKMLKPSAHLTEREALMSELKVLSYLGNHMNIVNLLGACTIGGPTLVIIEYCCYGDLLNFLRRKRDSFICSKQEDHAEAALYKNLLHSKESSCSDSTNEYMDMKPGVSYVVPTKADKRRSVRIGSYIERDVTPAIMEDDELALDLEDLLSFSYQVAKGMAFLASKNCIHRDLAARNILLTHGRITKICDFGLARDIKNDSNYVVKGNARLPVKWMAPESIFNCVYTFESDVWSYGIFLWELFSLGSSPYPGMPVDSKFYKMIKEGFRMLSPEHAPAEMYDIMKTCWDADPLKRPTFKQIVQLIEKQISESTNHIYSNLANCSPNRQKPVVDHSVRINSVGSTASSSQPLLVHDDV

T4 sequence (P09619 whole entry, the tested form may be a part): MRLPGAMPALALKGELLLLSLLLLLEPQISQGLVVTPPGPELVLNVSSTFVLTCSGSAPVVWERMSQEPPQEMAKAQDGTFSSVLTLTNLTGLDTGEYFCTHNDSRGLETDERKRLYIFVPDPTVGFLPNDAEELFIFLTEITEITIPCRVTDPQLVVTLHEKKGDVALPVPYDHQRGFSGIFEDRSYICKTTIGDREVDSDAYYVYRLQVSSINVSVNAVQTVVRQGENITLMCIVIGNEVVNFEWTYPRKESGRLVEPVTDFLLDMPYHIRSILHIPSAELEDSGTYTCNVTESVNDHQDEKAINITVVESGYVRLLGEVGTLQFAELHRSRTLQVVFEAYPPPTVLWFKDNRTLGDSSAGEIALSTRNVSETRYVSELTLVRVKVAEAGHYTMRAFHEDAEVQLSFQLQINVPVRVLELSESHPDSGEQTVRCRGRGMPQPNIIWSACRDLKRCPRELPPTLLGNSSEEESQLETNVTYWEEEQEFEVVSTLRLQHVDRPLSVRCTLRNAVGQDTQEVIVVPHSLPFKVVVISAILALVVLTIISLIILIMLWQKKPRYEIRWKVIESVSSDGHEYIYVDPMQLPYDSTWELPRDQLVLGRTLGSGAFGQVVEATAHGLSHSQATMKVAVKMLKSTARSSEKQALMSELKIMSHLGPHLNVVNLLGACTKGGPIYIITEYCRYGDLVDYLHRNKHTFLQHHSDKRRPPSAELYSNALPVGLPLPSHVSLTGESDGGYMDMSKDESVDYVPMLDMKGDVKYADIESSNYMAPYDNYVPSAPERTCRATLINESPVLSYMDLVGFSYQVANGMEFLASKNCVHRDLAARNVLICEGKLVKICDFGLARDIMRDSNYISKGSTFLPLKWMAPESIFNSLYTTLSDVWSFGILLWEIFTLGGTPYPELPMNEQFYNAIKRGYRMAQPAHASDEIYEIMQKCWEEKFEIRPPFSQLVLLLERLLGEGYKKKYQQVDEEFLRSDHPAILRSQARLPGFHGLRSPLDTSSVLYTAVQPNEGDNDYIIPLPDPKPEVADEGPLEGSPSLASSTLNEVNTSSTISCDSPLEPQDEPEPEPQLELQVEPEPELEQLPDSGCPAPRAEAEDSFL
Chain of Mast/stem cell growth factor receptor Kit (Homo sapiens, UniProt P10721, V654A) (P10721 26-976 V654A limits assumed): as the sequence (P10721 26-976 T670I limits assumed) above, with V629A, I645T counted along it
Chain of Tyrosine-protein kinase Lck (P06239 whole entry): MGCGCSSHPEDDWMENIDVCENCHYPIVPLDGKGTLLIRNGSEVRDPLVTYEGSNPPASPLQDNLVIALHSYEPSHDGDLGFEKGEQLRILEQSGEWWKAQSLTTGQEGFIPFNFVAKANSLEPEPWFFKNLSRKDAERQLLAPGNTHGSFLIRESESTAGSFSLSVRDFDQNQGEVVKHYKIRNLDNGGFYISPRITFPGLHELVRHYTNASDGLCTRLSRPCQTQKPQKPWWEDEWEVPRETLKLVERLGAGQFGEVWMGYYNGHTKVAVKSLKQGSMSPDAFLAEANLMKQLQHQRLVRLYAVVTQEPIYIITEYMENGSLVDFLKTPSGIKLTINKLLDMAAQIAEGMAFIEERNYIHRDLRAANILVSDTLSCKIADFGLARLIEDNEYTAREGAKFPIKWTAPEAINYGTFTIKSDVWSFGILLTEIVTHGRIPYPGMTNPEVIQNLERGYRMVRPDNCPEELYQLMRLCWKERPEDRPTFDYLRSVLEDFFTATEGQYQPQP
T1 sequence (P10721 whole entry): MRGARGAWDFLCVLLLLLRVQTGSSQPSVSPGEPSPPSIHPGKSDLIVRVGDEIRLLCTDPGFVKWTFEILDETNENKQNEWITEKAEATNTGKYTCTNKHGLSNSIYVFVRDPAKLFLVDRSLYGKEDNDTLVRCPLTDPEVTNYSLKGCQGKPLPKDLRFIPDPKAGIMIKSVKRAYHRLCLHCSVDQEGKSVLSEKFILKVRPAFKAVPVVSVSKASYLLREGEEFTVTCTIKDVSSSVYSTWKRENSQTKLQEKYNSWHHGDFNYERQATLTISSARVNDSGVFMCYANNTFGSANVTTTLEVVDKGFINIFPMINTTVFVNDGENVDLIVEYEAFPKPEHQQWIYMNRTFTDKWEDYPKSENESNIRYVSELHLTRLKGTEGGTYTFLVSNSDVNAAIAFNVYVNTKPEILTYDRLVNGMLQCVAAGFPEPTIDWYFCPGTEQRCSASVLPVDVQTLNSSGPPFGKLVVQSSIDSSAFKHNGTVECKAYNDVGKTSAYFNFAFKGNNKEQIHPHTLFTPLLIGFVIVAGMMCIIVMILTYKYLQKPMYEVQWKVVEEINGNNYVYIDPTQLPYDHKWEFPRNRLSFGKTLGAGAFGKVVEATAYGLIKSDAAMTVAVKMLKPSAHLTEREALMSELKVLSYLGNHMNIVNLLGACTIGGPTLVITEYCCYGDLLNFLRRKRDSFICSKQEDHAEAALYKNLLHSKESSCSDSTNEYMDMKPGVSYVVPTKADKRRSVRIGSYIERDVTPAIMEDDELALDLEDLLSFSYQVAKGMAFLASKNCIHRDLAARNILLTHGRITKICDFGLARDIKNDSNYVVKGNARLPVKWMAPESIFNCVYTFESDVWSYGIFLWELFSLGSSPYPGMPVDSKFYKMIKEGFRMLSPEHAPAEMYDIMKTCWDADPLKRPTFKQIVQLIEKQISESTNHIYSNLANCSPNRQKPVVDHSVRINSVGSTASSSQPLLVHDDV

Compound | IC50 [1] [nM] | Kd [2] [nM] | IC50 [3] [nM] | IC50 [4] [nM] | Kd [5] [nM] | IC50 [6] [nM] | Kd [7] [nM] | IC50 [8] [nM] | IC50 [9] [nM] | Kd [10] [nM] | IC50 [11] [nM]
Cc1cc(NC(=O)c2ccc(C)c(Nc3nccc(-c4cccnc4)n3)c2)cc(-n2cnc(C)c2)c1 | 54.9 | 1200 | 17.2 | 768 | 5.6 | 1450 | 14 | 882 | > 1000 | 12 | > 1000
Cc1cn(-c2cccc(NC(=O)c3ccc(C)c(Nc4nccc(-c5cccnc5)n4)c3)c2)cn1 | 32.5 | 1400 | 653 | 35400 | 320 | 44600 | 4.4 | 974 | > 1000 | 7.2 | > 1000
Cc1cn(-c2cc(F)cc(NC(=O)c3ccc(C)c(Nc4nccc(-c5cccnc5)n4)c3)c2)cn1 | 9.96 | 58 | 179 | > 5000 | 14 | 11100 | 3.5 | 118 | > 400 | 8.5 | > 1000
